Converted amounts (≈) assume the structure as drawn. Like-named read-outs stand apart in the source and are kept apart here.
How the values were obtained:
[1] = test system: Candida albicans ATCC 90028; assay: In vitro antifungal susceptibility testing (modified NCCLS method), media pH 7.3; assay type: cell-based
[2] = test system: Cryptococcus neoformans ATCC 90113; assay: In vitro antifungal susceptibility testing (modified NCCLS method); assay type: cell-based; details: for MFC / MIC: ATCC90113
C. albicans ATCC 90028 = assay: In vitro antimicrobial assay (modified NCCLS), Candida media pH 4.5; assay type: cell-based, Candida albicans; details: Candida albicans
C. glabrata ATCC 90030 = assay: as above; assay type: cell-based, Candida glabrata; details: Nakaseomyces glabratus
C. krusei ATCC 6258 = assay: as above; assay type: cell-based, Candida krusei; details: Pichia kudriavzevii, ATCC6258, pH 4.5, read-out: IC50 (50% inhibitory concentration)
[3] = test system: Germinating Conidia of Fusarium moniliforme; assay: Lethality bioassay on germinating conidia; assay type: cell-based; details: for viability at 5 µM / viability at 10 µM / viability at 15 µM / viability at 20 µM / viability at 25 µM / viability at 30 µM: Fusarium verticillioides, read-out: Percent of Control Mean (viable colonies, Fusarium moniliforme)
Protocol: (§1) Pathogen production. Stock slant isolates of Aspergillus flavus, Fusarium oxysporum, and Fusarium moniliforme were grown on potato dextrose agar (Difco, Detroit, Mich.) slants for 7 days at room temperature (22° C.).
(§2) Inoculum preparation. Prior to a bioassay, 4 ml of 1% potato dextrose broth (PDB, Difco, Detroit, Mich.), pH 4.86, was added to a stock culture slant. The conidia were suspended by gentle agitation using the pipette tip and the population determined with the use of a hemocytometer. The conidia were then diluted to a 10^4 conidia/ml concentration and incubated for 8 hrs at 22° C. to obtain germinating conidia that were used in the bioassays.
(§3) Experimental design of lethality bioassays to determine activity of coruscanone A. Coruscanone A was diluted in 100% methanol with a further dilution in PDB to achieve a stock concentration of 0.032 μg/μl. Test mixtures of germinating conidia and compound 67 were made in sterile 500 μl Eppendorf (Brinkman, Westbury, N.Y.) microcentrifuge tubes. Final test concentrations of compound 67 were 0, 5, 10, 15, 20, 25, and 30 μM in a final volume of 250 μl (0.0635 μg/μl=1.0 μM/250 μl). After an incubation of 30 min, 16 hours and 24 hours at 22° C., aliquots (50 μl) of the each sample were spread on each of 4 PDA plates. The plates were incubated at 22° C. for 2 days and the developed, viable colonies were enumerated. Separate bioassays were also set up at the same time as that with the 30 min incubation period but incubated at 22° C. for 16 and 24 hours, respectively. These samples were spread as previously described and the developing, viable colonies enumerated. Bioassays were performed on three separate occasions per fungus (n=12). Statistical analysis was performed using SigmaPlot 9.0 (p<0.05).

[4] = test system: Germinating Conidia of Fusarium oxysporum; assay: Lethality bioassay on germinating conidia; assay type: cell-based; details: for viability at 5 µM / viability at 10 µM / viability at 15 µM / viability at 20 µM / viability at 25 µM / viability at 30 µM: read-out: Percent of Control Mean (viable colonies, Fusarium oxysporum)
Protocol: as §1, §2, §3

COC(/C=C/c1ccccc1)=C1\C(=O)C=C(C)C1=O [Compound 1, coruscanone A]
Antifungal activity against C. albicans (in words) [1]: potent activity | MFC ([1]; ATCC90028, Candida albicans ATCC 90028, Table 1, read-out: MFC (Minimum Fungicidal Concentration)): 1.56 µg/mL (≈ 6.13 µM) | MIC ([1]; ATCC90028, Candida albicans ATCC 90028, Table 1, read-out: MIC (Minimum Inhibitory Concentration)): 0.78 µg/mL (≈ 3.07 µM) | Antifungal activity against C. albicans (in words) ([1]; listed as coruscanone A): comparable to or stronger than those of positive control drugs | MFC ([2]; Cryptococcus neoformans ATCC 90113, Table 1, read-out: MFC (Minimum Fungicidal Concentration)): 6.25 µg/mL (≈ 24.6 µM) | MIC ([2]; Cryptococcus neoformans ATCC 90113, Table 1, read-out: MIC (Minimum Inhibitory Concentration)): 6.25 µg/mL (≈ 24.6 µM) | IC50 ([2]; Cryptococcus neoformans, ATCC90113, read-out: IC50 (50% inhibitory concentration)): 1.5 µg/mL (≈ 5.9 µM) | MFC ([2]; Cryptococcus neoformans, Cr. neoformans ATCC 90113, Table 3, read-out: MFC): 2.5 µg/mL (≈ 9.83 µM) | MIC ([2]; Cryptococcus neoformans, Cr. neoformans ATCC 90113, Table 3, read-out: MIC): 2.5 µg/mL (≈ 9.83 µM) | IC50 (C. albicans ATCC 90028; ATCC90028, pH 4.5, read-out: IC50 (50% inhibitory concentration)): 0.2 µg/mL (≈ 0.787 µM) | MFC (C. albicans ATCC 90028; ATCC90028, C. albicans ATCC 90028, pH 4.5, Table 3, read-out: MFC): 0.63 µg/mL (≈ 2.48 µM) | MIC (C. albicans ATCC 90028; ATCC90028, C. albicans ATCC 90028, pH 4.5, Table 3, read-out: MIC): 0.31 µg/mL (≈ 1.22 µM) | IC50 (C. glabrata ATCC 90030; ATCC90030, pH 4.5, read-out: IC50 (50% inhibitory concentration)): 2.5 µg/mL (≈ 9.83 µM) | MIC (C. glabrata ATCC 90030; ATCC90030, C. glabrata ATCC 90030, pH 4.5, read-out: MIC): 5 µg/mL (≈ 19.7 µM) | IC50 (C. krusei ATCC 6258): 2.5 µg/mL (≈ 9.83 µM) | Concentration at and above which significant and increasing lethality was observed ([3]; Fusarium moniliforme, 16 and 24 hours of incubation): ≥ 5 µM | Lethality to germinating conidia (in words) ([3]; Fusarium moniliforme, 30 min incubation): not significantly lethal | viability at 5 µM ([3]; 0.5 h): 106% | viability at 10 µM ([3]; 0.5 h): 85.4% | viability at 15 µM ([3]; 0.5 h): 114% | viability at 20 µM ([3]; 0.5 h): 102% | viability at 25 µM ([3]; 0.5 h): 99.7% | viability at 30 µM ([3]; 0.5 h): 90.8% | viability at 5 µM ([3]; 16 h): 12.5% | viability at 10 µM ([3]; 16 h): 6.1% | viability at 15 µM ([3]; 16 h): 5.3% | viability at 20 µM ([3]; 16 h): 2.7% | viability at 25 µM ([3]; 16 h): 2.1% | viability at 30 µM ([3]; 16 h): 1.6% | viability at 5 µM ([3]; 24 h): 38.6% | viability at 10 µM ([3]; 24 h): 7.4% | viability at 15 µM ([3]; 24 h): 4.2% | viability at 20 µM ([3]; 24 h): 3.9% | viability at 25 µM ([3]; 24 h): 2.2% | viability at 30 µM ([3]; 24 h): 1.3% | viability at 5 µM ([4]; 0.5 h): 110% | viability at 10 µM ([4]; 0.5 h): 102% | viability at 15 µM ([4]; 0.5 h): 110% | viability at 20 µM ([4]; 0.5 h): 106% | viability at 25 µM ([4]; 0.5 h): 116% | viability at 30 µM ([4]; 0.5 h): 113% | viability at 5 µM ([4]; 16 h): 104% | viability at 10 µM ([4]; 16 h): 79.7% | viability at 15 µM ([4]; 16 h): 41.2% | viability at 20 µM ([4]; 16 h): 30.8% | viability at 25 µM ([4]; 16 h): 14.5% | viability at 30 µM ([4]; 16 h): 7.7% | Concentration at which significant and increasing lethality begins ([4]; 16 hour incubation): ≥ 15 µM | viability at 5 µM ([4]; 24 h): 80.2% | viability at 10 µM ([4]; 24 h): 56.7% | viability at 15 µM ([4]; 24 h): 35.2% | viability at 20 µM ([4]; 24 h): 19.4% | viability at 25 µM ([4]; 24 h): 10.9% | viability at 30 µM ([4]; 24 h): 4.3% | Concentration at and above which significantly and increasingly lethal ([4]; 24 hour incubation): ≥ 10 µM | Lethality to germinating conidia (in words) ([4]; any of the tested concentrations (time not given)): not lethal
